Data published in ChEMBL document CHEMBL3132769, “Fragment growing to retain or alter the selectivity of anchored kinase hinge-binding fragments” (Medchemcomm, 2014).

Columns and labels:
[1] = molecular target: T1, Testis-specific serine/threonine-protein kinase 1 (Homo sapiens) (UniProt Q9BXA7); assay: Inhibition of human full length TSSK1 expressed in baculovirus assessed as substrate phosphorylation using fluorescence-labelled peptides as substrate at 9 uM after 90 mins by microfluidic peptide phosphorylation assay
T1 sequence (whole entry): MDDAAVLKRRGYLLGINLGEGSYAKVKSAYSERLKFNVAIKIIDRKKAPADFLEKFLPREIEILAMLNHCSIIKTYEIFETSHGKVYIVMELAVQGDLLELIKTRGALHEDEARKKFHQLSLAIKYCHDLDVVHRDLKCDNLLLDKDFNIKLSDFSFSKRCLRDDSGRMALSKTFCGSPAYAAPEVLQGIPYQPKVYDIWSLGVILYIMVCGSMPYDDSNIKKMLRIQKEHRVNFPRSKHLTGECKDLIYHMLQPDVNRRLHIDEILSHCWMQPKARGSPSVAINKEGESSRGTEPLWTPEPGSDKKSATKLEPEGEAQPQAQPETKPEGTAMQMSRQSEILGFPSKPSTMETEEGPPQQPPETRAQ

[2] = system: Tyrosine-protein kinase ABL1 (Homo sapiens), P00519 [Q252H]; assay: Inhibition of human truncated ABL Q252H mutant expressed in baculovirus assessed as substrate phosphorylation using fluorescence-labelled peptides as substrate at 0.06 uM after 90 mins by microfluidic peptide phosphorylation assay
[3] = molecular target: T1, Testis-specific serine/threonine-protein kinase 1 (Homo sapiens); conditions: 0.1 uM
Description: Inhibition of human full length TSSK1 expressed in baculovirus assessed as substrate phosphorylation using fluorescence-labelled peptides as substrate at 0.1 uM after 90 mins by microfluidic peptide phosphorylation assay

[4] = molecular target: T2, Serine/threonine-protein kinase D1 (Homo sapiens) (UniProt Q15139); assay: Inhibition of human full length PKD1 expressed in baculovirus assessed as substrate phosphorylation using fluorescence-labelled peptides as substrate at 0.1 uM after 90 mins by microfluidic peptide phosphorylation assay
T2 sequence (whole entry): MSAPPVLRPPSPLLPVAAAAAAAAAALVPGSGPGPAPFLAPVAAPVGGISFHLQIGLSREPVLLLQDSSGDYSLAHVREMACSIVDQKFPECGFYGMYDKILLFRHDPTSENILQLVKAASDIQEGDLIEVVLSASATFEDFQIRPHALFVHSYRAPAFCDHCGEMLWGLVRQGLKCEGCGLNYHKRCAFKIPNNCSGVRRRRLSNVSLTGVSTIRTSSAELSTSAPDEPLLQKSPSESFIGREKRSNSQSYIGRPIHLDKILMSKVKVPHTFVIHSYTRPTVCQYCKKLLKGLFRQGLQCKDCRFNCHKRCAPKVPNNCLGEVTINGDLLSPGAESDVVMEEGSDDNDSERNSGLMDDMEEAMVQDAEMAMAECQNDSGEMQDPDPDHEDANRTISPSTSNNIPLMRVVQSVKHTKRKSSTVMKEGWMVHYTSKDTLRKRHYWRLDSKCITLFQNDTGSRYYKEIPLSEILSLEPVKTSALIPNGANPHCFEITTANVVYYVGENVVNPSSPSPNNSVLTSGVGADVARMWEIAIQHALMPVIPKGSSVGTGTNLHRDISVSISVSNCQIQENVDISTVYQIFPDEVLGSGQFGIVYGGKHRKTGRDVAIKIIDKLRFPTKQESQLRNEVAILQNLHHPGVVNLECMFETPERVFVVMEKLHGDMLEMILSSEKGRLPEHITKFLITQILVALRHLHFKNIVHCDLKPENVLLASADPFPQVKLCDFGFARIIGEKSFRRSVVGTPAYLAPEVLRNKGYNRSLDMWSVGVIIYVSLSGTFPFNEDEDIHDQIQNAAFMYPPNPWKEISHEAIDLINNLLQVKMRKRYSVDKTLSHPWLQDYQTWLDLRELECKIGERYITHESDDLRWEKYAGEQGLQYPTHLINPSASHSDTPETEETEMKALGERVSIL

[5] = molecular target: MAP kinase-activated protein kinase 3 (Homo sapiens) (UniProt Q16644); assay: Inhibition of human full length MAPKAPK3 expressed in Escherichia coli cell assessed as substrate phosphorylation using fluorescence-labelled peptides as substrate at […] after 90 mins by microfluidic peptide phosphorylation assay
[6] = system: Fibroblast growth factor receptor 2 (Homo sapiens), P21802 [N549H]; assay: Inhibition of human FGFR2 N549H mutant catalytic domain expressed in baculovirus assessed as substrate phosphorylation using fluorescence-labelled peptides as substrate at 420 uM after 90 mins by microfluidic peptide phosphorylation assay
[7] = molecular target: MAP kinase-activated protein kinase 3 (Homo sapiens) (UniProt Q16644); assay: Inhibition of human full length MAPKAPK3 expressed in Escherichia coli cell assessed as substrate phosphorylation using fluorescence-labelled peptides as substrate at 70 uM after 90 mins by microfluidic peptide phosphorylation assay
[8] = molecular target: Casein kinase I isoform delta (Homo sapiens) (UniProt P48730); assay: Inhibition of human CK1D catalytic domain expressed in Escherichia coli cell assessed as substrate phosphorylation using fluorescence-labelled peptides as substrate at 70 uM after 90 mins by microfluidic peptide phosphorylation assay
[9] = molecular target: Serine/threonine-protein kinase PAK 2 (Homo sapiens) (UniProt Q13177); assay: Inhibition of human truncated PAK2 expressed in Escherichia coli cell assessed as substrate phosphorylation using fluorescence-labelled peptides as substrate at 0.2 uM after 90 mins by microfluidic peptide phosphorylation assay
[10] = molecular target: T3, Serine/threonine-protein kinase Sgk2 (Homo sapiens) (UniProt Q9HBY8); assay: Inhibition of human full length SGK2 expressed in baculovirus assessed as substrate phosphorylation using fluorescence-labelled peptides as substrate at 0.2 uM after 90 mins by microfluidic peptide phosphorylation assay
T3 sequence (whole entry): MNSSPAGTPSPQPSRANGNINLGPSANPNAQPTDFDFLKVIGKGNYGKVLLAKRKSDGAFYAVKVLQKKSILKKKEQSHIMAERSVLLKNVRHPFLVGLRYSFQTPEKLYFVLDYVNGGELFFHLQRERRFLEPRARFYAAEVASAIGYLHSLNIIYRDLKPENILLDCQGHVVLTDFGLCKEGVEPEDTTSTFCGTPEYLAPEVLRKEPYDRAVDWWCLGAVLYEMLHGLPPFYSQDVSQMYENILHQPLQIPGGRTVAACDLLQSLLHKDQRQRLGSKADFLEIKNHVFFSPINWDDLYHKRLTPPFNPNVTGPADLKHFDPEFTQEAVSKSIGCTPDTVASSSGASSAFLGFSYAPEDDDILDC

[11] = molecular target: MAP kinase-activated protein kinase 2 (Homo sapiens) (UniProt P49137); assay: Inhibition of human full length MAPKAPK2 expressed in baculovirus assessed as substrate phosphorylation using fluorescence-labelled peptides as substrate at 8 uM after 90 mins by microfluidic peptide phosphorylation assay
Sequence of MAP kinase-activated protein kinase 2 (Homo sapiens) (P49137 whole entry, looked up): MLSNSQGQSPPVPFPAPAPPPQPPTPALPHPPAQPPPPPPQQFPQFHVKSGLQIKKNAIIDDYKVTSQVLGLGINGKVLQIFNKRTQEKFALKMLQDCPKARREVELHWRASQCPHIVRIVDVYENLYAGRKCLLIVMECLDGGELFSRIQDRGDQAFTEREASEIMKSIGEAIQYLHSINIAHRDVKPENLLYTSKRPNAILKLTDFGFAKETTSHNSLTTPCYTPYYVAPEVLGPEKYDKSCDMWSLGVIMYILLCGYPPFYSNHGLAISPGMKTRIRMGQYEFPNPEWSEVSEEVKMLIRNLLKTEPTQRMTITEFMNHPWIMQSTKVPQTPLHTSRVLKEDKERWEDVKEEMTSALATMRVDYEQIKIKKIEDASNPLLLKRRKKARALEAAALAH

Sequence of MAP kinase-activated protein kinase 3 (Homo sapiens) (Q16644 whole entry, looked up, the tested form may be a part, canonical isoform): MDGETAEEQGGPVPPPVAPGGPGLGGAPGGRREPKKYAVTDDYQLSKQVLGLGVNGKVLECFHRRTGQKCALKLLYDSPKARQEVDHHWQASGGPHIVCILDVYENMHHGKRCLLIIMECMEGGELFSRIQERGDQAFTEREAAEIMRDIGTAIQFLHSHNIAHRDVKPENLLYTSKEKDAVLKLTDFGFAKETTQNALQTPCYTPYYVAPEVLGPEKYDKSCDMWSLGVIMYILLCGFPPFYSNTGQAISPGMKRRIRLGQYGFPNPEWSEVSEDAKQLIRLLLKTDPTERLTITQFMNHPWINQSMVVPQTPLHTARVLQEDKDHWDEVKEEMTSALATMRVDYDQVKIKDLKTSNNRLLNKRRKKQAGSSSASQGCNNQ
Sequence of Fibroblast growth factor receptor 2 (Homo sapiens), P21802 [N549H] (P21802 whole entry N549H, the tested form may be a part): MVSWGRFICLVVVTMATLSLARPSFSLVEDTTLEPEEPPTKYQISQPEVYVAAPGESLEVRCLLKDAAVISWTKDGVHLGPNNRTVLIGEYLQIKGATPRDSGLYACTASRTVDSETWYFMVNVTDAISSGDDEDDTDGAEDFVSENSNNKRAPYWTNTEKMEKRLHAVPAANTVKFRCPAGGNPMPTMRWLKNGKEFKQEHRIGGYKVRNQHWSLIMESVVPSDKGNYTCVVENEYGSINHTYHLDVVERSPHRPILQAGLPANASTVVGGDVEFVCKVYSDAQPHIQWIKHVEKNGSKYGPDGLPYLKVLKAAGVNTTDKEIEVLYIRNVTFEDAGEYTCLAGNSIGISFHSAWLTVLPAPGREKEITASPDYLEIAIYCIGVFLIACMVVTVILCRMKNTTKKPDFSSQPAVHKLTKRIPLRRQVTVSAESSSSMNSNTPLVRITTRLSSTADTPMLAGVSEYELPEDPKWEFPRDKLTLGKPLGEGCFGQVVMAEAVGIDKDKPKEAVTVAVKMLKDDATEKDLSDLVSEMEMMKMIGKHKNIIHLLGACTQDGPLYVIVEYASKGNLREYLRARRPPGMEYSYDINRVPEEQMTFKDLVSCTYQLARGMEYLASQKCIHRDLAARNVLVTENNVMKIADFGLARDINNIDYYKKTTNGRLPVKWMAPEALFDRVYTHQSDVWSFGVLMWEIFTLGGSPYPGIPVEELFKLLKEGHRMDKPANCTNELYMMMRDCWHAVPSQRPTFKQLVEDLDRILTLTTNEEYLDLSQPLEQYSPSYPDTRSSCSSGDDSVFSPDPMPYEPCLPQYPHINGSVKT
Sequence of Serine/threonine-protein kinase PAK 2 (Homo sapiens) (Q13177 whole entry, the tested form may be a part): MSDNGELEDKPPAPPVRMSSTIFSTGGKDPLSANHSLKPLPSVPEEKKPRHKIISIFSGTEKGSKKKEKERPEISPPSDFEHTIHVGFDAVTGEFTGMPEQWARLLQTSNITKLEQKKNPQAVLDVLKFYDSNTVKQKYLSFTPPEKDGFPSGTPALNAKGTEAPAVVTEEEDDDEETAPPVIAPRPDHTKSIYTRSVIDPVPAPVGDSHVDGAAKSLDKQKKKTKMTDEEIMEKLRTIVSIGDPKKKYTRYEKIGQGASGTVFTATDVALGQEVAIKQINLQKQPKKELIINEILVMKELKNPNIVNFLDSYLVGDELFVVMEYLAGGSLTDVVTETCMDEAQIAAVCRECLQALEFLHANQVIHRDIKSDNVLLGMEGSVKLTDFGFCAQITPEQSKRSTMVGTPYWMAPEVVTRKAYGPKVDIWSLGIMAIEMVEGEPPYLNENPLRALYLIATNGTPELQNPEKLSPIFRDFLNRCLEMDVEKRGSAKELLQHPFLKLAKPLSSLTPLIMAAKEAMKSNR
Sequence of Casein kinase I isoform delta (Homo sapiens) (P48730 whole entry, looked up, the tested form may be a part, canonical isoform): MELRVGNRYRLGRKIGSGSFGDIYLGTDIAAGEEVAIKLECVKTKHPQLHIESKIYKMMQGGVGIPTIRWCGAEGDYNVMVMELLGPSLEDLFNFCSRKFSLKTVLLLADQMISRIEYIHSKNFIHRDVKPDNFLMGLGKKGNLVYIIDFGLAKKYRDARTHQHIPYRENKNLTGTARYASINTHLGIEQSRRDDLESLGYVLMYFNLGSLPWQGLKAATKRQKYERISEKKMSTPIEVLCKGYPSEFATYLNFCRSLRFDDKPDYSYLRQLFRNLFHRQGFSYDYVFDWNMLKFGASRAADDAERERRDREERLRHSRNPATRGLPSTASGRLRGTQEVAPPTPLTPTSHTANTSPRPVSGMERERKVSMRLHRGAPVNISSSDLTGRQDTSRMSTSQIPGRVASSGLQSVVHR

In the case of `NCC1CN(c2ncnc3[nH]c4cnccc4c23)CCO1` (stereo unspecified), the inhibition [1] is reported as 41.5%.

In the case of `NC1(Cc2ccc(Cl)cc2)CCN(c2ncnc3[nH]ccc23)CC1`, the inhibition [2] is reported as 0%.

For `C[C@H](CN(C)C)Oc1nc(Nc2cc3cccc(Cl)c3cn2)cnc1C#N`, the inhibition [3] was 0% and the inhibition [4] was 5%.

For `COC(=O)c1cnc(Nc2cnc(C#N)cn2)cc1NCC1CCNCC1`, the inhibition [5] was 7%.

Molecule `c1nc(N2CCOCC2)c2nc[nH]c2n1` has an inhibition [6] of 89.5%.

`CNCc1ccc(-c2ncnc3[nH]cnc23)cc1` showed an inhibition [7] of 1.5% and an inhibition [8] of 46%.

Work on `Clc1ccc(C2(c3ccc(-c4ncnc5[nH]cnc45)cc3)CCNCC2)cc1` yielded an inhibition [9] of 11% and an inhibition [10] of 23.5%.

With `NCC1CCN(c2ncnc3[nH]ccc23)CC1` the inhibition [11] was 81%.
